Test results as given in patent US9624167B2, “N-(4-hydroxy-4-methyl-cyclohexyl)-4-phenyl-benzenesulfonamides and N-(4-hydroxy-4-methyl-cyclohexyl)-4-(2-pyridyl)benzenesulfonamides and their therapeutic use” (PIMCO 2664 LIMITED, priority 2013, dated 2017).
Where two headings read alike, the source gives them in different places. Marks after values point to notes of the source that are not given here.

Key:
[1] = Maximum Tolerated Dose, Sprague-Dawley rats; details: rat, in vivo, oral, ascending dose
Experimental: The acute safety of the compounds was assessed in rats in order to enable determination of the maximum tolerated dose (MTD), an indication of a compound's safety in animals. The higher the MTD, the greater is the potential safety of the compound being tested.
Two male and two female Sprague-Dawley rats, aged 8-12 weeks, were dosed at each dose level in an ascending dose study design. The test compounds were administered orally as a suspension formulated in 0.5% carboxymethylcellulose (CMC)/0.1% Tween-80 in a dose volume of 10 mL/kg. Animals were given free access to food throughout the study.
Animals were observed on at least two occasions during the first hour following dosing, approximately 30 minutes apart, and thereafter at hourly intervals for the remainder of the dosing day for at least 4 hours. […] The nature and severity, where appropriate, of the clinical signs and time were recorded at each observation. Observations included changes in the skin, fur, eyes, and mucous membranes, and also the respiratory, circulatory, autonomic, and central nervous system, as well as somatomotor activity and behaviour pattern. Particular attention was directed towards the observation of tremors, convulsions, salivation, diarrhoea, lethargy, sleep, and coma.
At the completion of the study, the results were expressed as the maximum tolerated dose for each compound, this being the highest of each without unacceptable toxicity.
The maximum dose without unacceptable side-effects was determined to be the MTD (expressed in mg/kg).

[2] = tested on: pristane-induced arthritis; assay: Rat Pristane-Induced Arthritis Study; assay type: in vivo; details: for % inhibition of disease: once daily for 28 days; for Tolerability during extended dosing: rat pristane-induced arthritis study, oral, up to 28 days
Experimental: Female Lewis rats were used for all procedures. Animals were housed in groups of 5, and were maintained at 21° C.±2° C. on a 12-hour light/dark cycle with food and water ad libitum. Arthritis was induced by the administration of 0.3 mL pristane intra-dermally at the base of the tail. The rats started to develop signs and symptoms of arthritis approximately seven days after the pristane injection.
(§1) For macroscopic assessment of arthritis, the following signs were monitored in each paw of each mouse three times per week and summed to generate the Arthritic Index (AI) (the maximum AI for one animal is 16): • 0=no visible effects of arthritis. • 1=oedema and/or erythema of 1 digit. • 2=oedema and/or erythema of 2 digits. • 3=oedema and/or erythema of more than 2 digits. • 4=severe arthritis of entire paw and digits including limb deformation and ankylosis of the joint.
Animals were sorted into treatment groups prior to pristane administration and dosed once daily for 28 days with test compound at doses of 3 and 10 mg/kg/day by oral gavage, or by intraperitoneal injection at a dose of 0.05 mg/kg for the positive control, methotrexate. After completion of the experiment, the rats were sacrificed.
(§2) The data were analysed by generating an average of the arthritic index across each treatment group. The mean arthritic index was then compared to the arthritic index of control (untreated) animals using the following formula to generate a percentage inhibition of disease.

[3] = biological target: T1, hERG ion channel (Homo sapiens, UniProt Q12809); assay: hERG Ion Channel Assay (Q-patch, hERG-CHO cells); assay type: cell-based; details: hERG tail current, hERG-CHO cells, Q-patch; read-out: IC50 (1)
T1 construct: expressed in transfected cells; host or cells: Chinese Hamster Ovary cells (hERG-CHO), stably transfected
T1 sequence (Q12809 whole entry): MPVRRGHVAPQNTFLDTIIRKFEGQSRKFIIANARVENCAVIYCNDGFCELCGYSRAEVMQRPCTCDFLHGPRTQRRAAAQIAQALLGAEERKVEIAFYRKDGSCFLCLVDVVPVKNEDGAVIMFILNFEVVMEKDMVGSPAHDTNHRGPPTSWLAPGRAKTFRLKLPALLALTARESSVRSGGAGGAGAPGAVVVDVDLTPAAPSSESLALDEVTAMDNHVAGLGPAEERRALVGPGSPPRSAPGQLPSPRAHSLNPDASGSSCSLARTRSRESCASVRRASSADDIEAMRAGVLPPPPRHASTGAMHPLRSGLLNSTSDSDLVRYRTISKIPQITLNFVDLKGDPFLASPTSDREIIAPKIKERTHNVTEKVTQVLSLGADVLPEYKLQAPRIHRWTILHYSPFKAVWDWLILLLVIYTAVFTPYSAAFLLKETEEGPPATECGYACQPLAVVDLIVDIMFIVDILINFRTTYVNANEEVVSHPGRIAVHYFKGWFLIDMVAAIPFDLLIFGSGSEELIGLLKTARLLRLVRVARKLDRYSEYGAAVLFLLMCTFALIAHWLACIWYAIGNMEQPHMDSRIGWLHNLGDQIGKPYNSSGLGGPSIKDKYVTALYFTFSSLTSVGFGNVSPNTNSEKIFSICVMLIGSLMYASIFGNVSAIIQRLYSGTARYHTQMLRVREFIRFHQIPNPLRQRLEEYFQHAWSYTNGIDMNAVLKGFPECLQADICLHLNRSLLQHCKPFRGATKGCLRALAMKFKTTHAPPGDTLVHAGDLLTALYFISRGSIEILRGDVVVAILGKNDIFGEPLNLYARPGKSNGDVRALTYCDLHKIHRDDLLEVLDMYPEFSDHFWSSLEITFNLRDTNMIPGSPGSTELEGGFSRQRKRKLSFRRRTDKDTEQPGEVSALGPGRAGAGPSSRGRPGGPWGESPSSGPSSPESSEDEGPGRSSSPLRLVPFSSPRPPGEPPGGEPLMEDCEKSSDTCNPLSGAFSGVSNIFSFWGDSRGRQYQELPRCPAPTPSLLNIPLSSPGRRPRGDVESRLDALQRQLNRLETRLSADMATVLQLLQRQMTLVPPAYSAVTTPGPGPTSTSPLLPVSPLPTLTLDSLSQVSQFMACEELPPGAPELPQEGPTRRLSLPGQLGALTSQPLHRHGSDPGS
Experimental: The activity of the compounds against the hERG ion channel was tested. The assay was conducted using the automated path-clamp, Q-patch method using stably transfected Chinese Hamster Ovary cells (hERG-CHO). hERG-CHO cells were cultured in F-12 Kaighn's Nutrient Mixture medium (Invitrogen)+10% FBS at 37° C. for 1-3 days. Cells were kept at 30° C. for 24 to 48 hours prior to patch clamping in order to increase the hERG current amplitude. Subsequently, the cells were harvested by trypsinisation, and kept in Serum Free Medium (SFM) in the Q-patch cell preparation state for up to 6 hours at room temperature before being washed and re-suspended in extracellular solution and applied to the patch clamp sites for data recording.
Patch-clamp voltage protocol: After whole cell configuration was achieved, the cell was held at −80 mV. A 50 millisecond pulse to −40 mV was delivered to measure the leaking current, which was subtracted from the tail current on-line. Then the cell was depolarized to +20 mV for 2 seconds, followed by a one second pulse to −40 mV to reveal hERG tail current. This paradigm was delivered once every 5 seconds to monitor the current amplitude.
Extracellular solution: 137 mM NaCl, 4 mM KCl, 1.8 mM CaCl2, 1 mM MgCl2, 10 mM D(+)-glucose, 10 mM HePES buffer (pH adjusted to 7.4 with NaOH).
After the whole cell configuration was achieved, the extracellular solution (control) was applied first and the cell was stabilized for 2 minutes in extracellular solution. The test compound was then applied from low concentrations to high concentrations cumulatively. The cell was incubated with each test concentration for 5 minutes. During each incubation, the cell was repetitively stimulated using the voltage protocol described above, and the tail current amplitude was continuously monitored.
• (1) Peak tail current >100 pA in control. • (2) Initial run-down <30% and the run-down stops before first application of the test compound. • (3) Leak currents <50% of the control peak tail currents at any time. • (4) rs<20 MΩ throughout the experiment.
The degree of inhibition (%) was obtained by measuring the tail current amplitude, induced by a one second test pulse to −40 mV after a two second pulse to +20 mV, before and after incubation with the test compound. The difference in current was normalized to control and multiplied by 100 in order to obtain the percent inhibition.
Concentration (log) response curves were fitted to a logistic equation (three parameters assuming complete block of the current at very high test compound concentrations) to generate estimates of the 50% inhibitory concentration (IC50). The concentration-response relationship of each compound was constructed from the percentage reductions of current amplitude by sequential concentrations.

[4] = tested on: collagen-induced arthritis; assay: Mouse Collagen-Induced Arthritis; assay type: in vivo, DBA/1j mice
Experimental: Seven- to eight-week-old male DBA/1j mice were used for all procedures. Animals were housed in groups of 10, and were maintained at 21° C.±2° C. on a 12-hour light/dark cycle with food and water ad libitum. […]. All mice were immunised subcutaneously with 200 μg of bovine type II collagen in CFA. 21 days later, all mice were immunised subcutaneously with 100 μg of bovine type II collagen in IFA.
The mice started to develop signs and symptoms of arthritis following the ‘booster’ immunisation.
as §1, with “digits.” for “digits including limb deformation and ankylosis of the joint.”
Animals were sorted into treatment groups with a mean arthritic index of 2.5 and then dosed once daily for 14 days with compound by oral gavage for test compounds, or by subcutaneous injection at a dose of 10 mg/kg for the positive control, etanercept. After completion of the experiment, the mice were sacrificed.
as §2

[5] = Rodent pharmacokinetics study; assay type: in vivo, Sprague-Dawley rats; details: rat; for p.o. AUC: dosed at 10 mg/kg orally (‡)
[6] = female Sprague-Dawley rats, read-out: Maximum tolerated dose, Females
[7] = male Sprague-Dawley rats, read-out: Maximum tolerated dose, Males
[8] = 10 mg/kg/day oral gavage, once daily for 14 days, arthritic index vs control
[9] = dosed at 0.5 mg/kg intravenously (*)
[10] = dosed at 2 mg/kg intravenously (†)

| SMILES | MTD [1, 6] [mg/kg] | MTD [1, 7] [mg/kg] | IC50 [3] [µM] | % inhibition of disease [4, 8] [%] | further results |
| --- | --- | --- | --- | --- | --- |
| C[C@]1(O)CC[C@H](NS(=O)(=O)c2ccc(-c3ncc(F)cc3F)c(F)c2)CC1 [HMC-N-01-A, 4-(3,5-Difluoropyridin-2-yl)-3-fluoro-N-((1r,4r)-4-hydroxy-4-methylcyclohexyl)benzenesulfonamide] | 80 | 80 | 183 | 45 | % inhibition of disease ([2]; 3 mg/kg/day oral gavage): 39%; % inhibition of disease ([2]; 10 mg/kg/day oral gavage): 60%; Tolerability during extended dosing [2]: tolerated well |
| C[C@]1(O)CC[C@@H](NS(=O)(=O)c2ccc(-c3ccc(F)cc3F)c(F)c2)CC1 [HMC-C-04-B, 2,2′,4′-Trifluoro-N-((1s,4s)-4-hydroxy-4-methylcyclohexyl)-[1,1′-biphenyl]-4-sulfonamide] | – | – | – | – | i.v. AUC [5, 9]: 1589* ng·min/mL |
| C[C@]1(O)CC[C@H](NS(=O)(=O)c2ccc(-c3c(F)cc(F)cc3F)cc2)CC1 [HMC-C-03-A, 2′,4′,6′-Trifluoro-N-((1r,4r)-4-hydroxy-4-methylcyclohexyl)biphenyl-4-sulfonamide] | 30 | 30 | > 30 | – | – |
| C[C@]1(O)CC[C@@H](NS(=O)(=O)c2ccc(-c3ncc(F)cc3F)c(F)c2)CC1 [HMC-N-01-B, 4-(3,5-Difluoropyridin-2-yl)-3-fluoro-N-((1s,4s)-4-hydroxy-4-methylcyclohexyl)benzenesulfonamide] | – | – | – | – | % inhibition of disease ([4]; dose reduced from 10 to 1 mg/kg/day due to mortality, oral gavage): 38% |
| C[C@]1(O)CC[C@H](NS(=O)(=O)c2ccc(-c3ncc(Cl)cc3Cl)c(F)c2)CC1 [HMC-N-04-A, 4-(3,5-Dichloropyridin-2-yl)-3-fluoro-N-((1r,4r)-4-hydroxy-4-methylcyclohexyl)benzenesulfonamide] | – | – | > 30 | – | – |
| Cc1cc(S(=O)(=O)NC2CCC(C)(O)CC2)ccc1-c1ccc(F)cc1F (single isomer, unassigned) [REF001, reference compound] | 7.5 | 10 | – | – | p.o. AUC [5]: 4766 ng·min/mL |
| C[C@]1(O)CC[C@H](NS(=O)(=O)c2ccc(-c3ncc(F)cc3F)cc2)CC1 [HMC-N-02-A, 4-(3,5-Difluoropyridin-2-yl)-N-((1r,4r)-4-hydroxy-4-methylcyclohexyl)benzenesulfonamide] | > 200 | > 200 | 231 | 36 | i.v. AUC [5, 10]: 3053 ng·min/mL |
| C[C@]1(O)CC[C@H](NS(=O)(=O)c2ccc(-c3ccc(F)cc3C(F)(F)F)cc2)CC1 [HMC-C-02-A, 4′-Fluoro-N-((1r,4r)-4-hydroxy-4-methylcyclohexyl)-2′-(trifluoromethyl)biphenyl-4-sulfonamide] | > 200 | > 200 | 25 | 61 | – |
| C[C@]1(O)CC[C@H](NS(=O)(=O)c2ccc(-c3ccc(Cl)cc3C#N)cc2)CC1 [HMC-C-01-A, 4′-Chloro-2′-cyano-N-((1r,4r)-4-hydroxy-4-methylcyclohexyl)biphenyl-4-sulfonamide] | 70 | 70 | 19.3 | 40 | % inhibition of disease ([2]; 3 mg/kg/day oral gavage): 40%; % inhibition of disease ([2]; 10 mg/kg/day oral gavage): 67%; Efficacy compared with positive control methotrexate ([2]; methotrexate 0.05 mg/kg intraperitoneal): equivalent to that of the marketed first-line therapy for rheumatoid arthritis, methotrexate; Tolerability during extended dosing [2]: tolerated well; % inhibition of disease ([4]; 0.3 mg/kg/day oral gavage, once daily for 14 days): 60%; % inhibition of disease ([4]; 1 mg/kg/day oral gavage, once daily for 14 days): 50%; % inhibition of disease ([4]; 3 mg/kg/day oral gavage, once daily for 14 days): 60%; Efficacy compared with positive control etanercept ([4]; low doses (0.3 and 3 mg/kg/day) vs etanercept 10 mg/kg subcutaneous): greater efficacy than the marketed treatment, etanercept, at low doses |
| C[C@]1(O)CC[C@@H](NS(=O)(=O)c2ccc(-c3ccc(Cl)cc3C#N)cc2)CC1 [HMC-C-01-B, 4′-Chloro-2′-cyano-N-((1s,4s)-4-hydroxy-4-methylcyclohexyl)-[1,1′-biphenyl]-4-sulfonamide] | – | – | – | 26 | – |
| C[C@]1(O)CC[C@@H](NS(=O)(=O)c2ccc(-c3ncc(Cl)cc3Cl)cc2)CC1 [HMC-N-03-B, 4-(3,5-Dichloropyridin-2-yl)-N-((1s,4s)-4-hydroxy-4-methylcyclohexyl)benzenesulfonamide] | – | – | – | – | i.v. AUC [5, 9]: 1380* ng·min/mL |
| C[C@]1(O)CC[C@@H](NS(=O)(=O)c2ccc(-c3c(F)cc(F)cc3F)cc2)CC1 [HMC-C-03-B, 2′,4′,6′-Trifluoro-N-((1s,4s)-4-hydroxy-4-methylcyclohexyl)-[1,1′-biphenyl]-4-sulfonamide] | – | – | – | – | i.v. AUC [5, 9]: 816* ng·min/mL |
| C[C@]1(O)CC[C@H](NS(=O)(=O)c2ccc(-c3ncc(Cl)cc3Cl)cc2)CC1 [HMC-N-03-A, 4-(3,5-Dichloropyridin-2-yl)-N-((1r,4r)-4-hydroxy-4-methylcyclohexyl)benzenesulfonamide] | 50 | 50 | > 30 | – | i.v. AUC [5, 10]: 5102 ng·min/mL |
| Cc1cc(S(=O)(=O)N[C@H]2CC[C@H](O)CC2)ccc1-c1ccc(F)cc1F [ABD735] | 20 | 10 | – | 44 | p.o. AUC [5]: 8965 ng·min/mL |
